{"source": "paper PMC2568956", "about": "“The Antimicrobial Peptide Histatin-5 Causes a Spatially Restricted Disruption on the Candida albicans Surface, Allowing Rapid Entry of the Peptide into the Cytoplasm” (PLoS Pathogens, 2008)", "key": {"C. albicans cells [1]": {"system": "C. albicans cells", "assay": "Hst-5 localization studies by fluorescence microscopy", "assay_type": "cell-based, Candida albicans", "procedure": "(§1) The intracellular localization of FITC-Hst-5 (5, 10, 20, and 50 µM) and FITC-m68 (5, 10, 20, 50, and 200 µM) was investigated either alone or in a double-labeling experiment using FM4-64 (Molecular Probes, Inc. Eugene, OR). Yeast cells in 50 µl (∼10^6 cells/ml) were incubated for 30 minutes at 30°C with 10 µM FITC-Hst-5 and 10 µM FM4-64; the cells were then washed twice with 10 mM NaN3 and 10 mM NaF in 20 mM PBS buffer, and analyzed immediately by wide-field fluorescence microscopy.\n(§2) Wide-field fluorescence images were obtained on either Zeiss Axioplan 2 or the inverted Zeiss Axio Observer.Z1 Microscope (Carl Zeiss MicroImaging, Inc. Thornwood, NY) fluorescent system, equipped with the AttoArc HBO 100 and the X-Cite series 120 mercury lamps, respectively. Images were taken using a 100× NA 1.4 objective. Both fluorescence microscopes were equipped with GFP, RFP, and DAPI filter sets."}, "S. cerevisiae [2]": {"system": "S. cerevisiae", "assay": "FITC-Hst-5 localization in S. cerevisiae by fluorescence microscopy", "assay_type": "cell-based, Saccharomyces cerevisiae", "conditions": "50 µM FITC-Hst-5, 30 minutes, 30°C, fixed exposure time 9 ms", "procedure": "as §1, §2"}, "S. cerevisiae [3]": {"system": "S. cerevisiae", "conditions": "cited from earlier work"}, "C. albicans": {"system": "C. albicans", "set-up": "method as in 4 sources, one per row (each row's own in cited_ref): ref 3, 4 = [3]; PMID 2406266; 3 Raj PA Edgerton M Levine MJ 1990 Salivary histatin 5: dependence of sequence, chain length, and helical conformation for candidacidal activity. J Biol Chem 265 3898 3905 2406266 || [4]; PMID 1855975; doi:10.1128/iai.59.8.2549-2554.1991; 4 Xu T Levitz SM Diamond RD Oppenheim FG 1991 Anticandidal activity of major human salivary histatins. Infect Immun 59 2549 2554 1855975 10.1128/iai.59.8.2549-2554.1991 PMC258054 ||| ref 37 = [37]; PMID 8945538; doi:10.1128/iai.64.12.5000-5007.1996; 37 Tsai H Raj PA Bobek LA 1996 Candidacidal activity of recombinant human salivary histatin-5 and variants. Infect Immun 64 5000 5007 8945538 10.1128/iai.64.12.5000-5007.1996 PMC174480 ||| ref 10, 13, 49 = [10]; PMID 10066791; doi:10.1074/jbc.274.11.7286; 10 Helmerhorst EJ Breeuwer P van't Hoff W Walgreen-Weterings E Oomen LC 1999 The cellular target of histatin 5 on Candida albicans is the energized mitochondrion. J Biol Chem 274 7286 7291 10066791 10 || [13]; PMID 10471575; doi:10.1128/aac.43.9.2256; 13 Xu Y Ambudkar I Yamagishi H Swaim W Walsh TJ 1999 Histatin 3-mediated killing of Candida albicans : effect of extracellular salt concentration on binding and internalization. Antimicrob Agents Chem || [49]; PMID 11083804; doi:10.1128/iai.68.12.6848-6856.2000; 49 Koshlukova SE Araujo MW Baev D Edgerton M 2000 Released ATP is an extracellular cytotoxic mediator in salivary histatin 5-induced killing of Candida albicans . Infect Immun 68 6848 6856 11083804 10 ||| ref 65, 66 = [65]; PMID 11204768; doi:10.1023/a:1026572128004; 65 van't Hoff W Reijnders I Helmerhorst E Walgreen-Weterings E Simoons-Smit I 2000 Synergistic effects of low doses of histatin 5 and its analogues on amphotericin B anti-mycotic activity. Antonie Van || [66]; PMID 16291868; doi:10.1093/jac/dki402; 66 Tanida T Okamoto T Ueta E Yamamoto T Osaki T 2006 Antimicrobial peptides enhance the candidacidal activity of antifungal drugs by promoting the efflux of ATP from Candida cells. J Antimicrob Chemot", "conditions": "cited from earlier work"}, "[4]": {"conditions": "liposome model system; cited from earlier work", "procedure": "Histatins are a family of low-molecular weight histidine-rich cationic peptides that are found specifically in human salivary secretions. […] It kills C. albicans in vitro at physiological concentrations (15–30 µM),[4]. Structural studies of Hst-5 have shown that it takes on a random coil structure in aqueous solvents and adopts a largely α-helical conformation in non-aqueous solutions [5],[6]. Many antimicrobial cationic peptides form either α ..."}, "C. glabrata [5]": {"system": "C. glabrata", "conditions": "cited from earlier work"}, "[6]": {"system": "C. albicans wild-type cells", "assay": "Hst-5 localization in cells treated with latrunculin A or cytochalasin A", "assay_type": "cell-based, Candida albicans", "conditions": "cells pre-treated with 50 µM latrunculin A or 5 µM cytochalasin A for 60 minutes at room temperature, then 5 µM FITC-Hst-5, 30 minutes, 30°C", "procedure": "(§3) To depolarize F-actin, cells were treated with either 5 µM cytochalasin A or 50 µM latrunculin A (Sigma, St. Louis, MO) for 1 hour at room temperature. The control cells (wild-type and myo5) were treated with the equivalent volume of the DMSO solvent (0.5%). The cells were then exposed to 5 µM of FITC-Hst-5 for 30 minutes at 30°C. The cells were then washed twice with buffer containing NaN3 and NaF and analyzed by wide-field fluorescence microscopy and flow cytometry."}, "C. glabrata [7]": {"system": "C. glabrata", "assay": "FITC-Hst-5 localization in C. glabrata by fluorescence microscopy", "assay_type": "cell-based, Candida glabrata", "conditions": "50 µM FITC-Hst-5, 30 minutes, 30°C, fixed exposure time 9 ms", "procedure": "as §1, §2"}, "C. albicans cells [8]": {"system": "C. albicans cells", "assay_type": "cell-based, Candida albicans", "conditions": "10 µM FITC-Hst-5, 30 minutes, 30°C, cell sorting, ~200 cells plated on YPD, overnight 30°C, triplicate cultures", "procedure": "C. albicans cells were incubated for 30 minutes with 10 µM of FITC-Hst-5 at 30°C. The cells were then washed twice with 20 mM PBS buffer and under went flow cytometric cell sorting using the DAKO Cytomation MoFlo Flow Cytometer (DAKO, Glostrup, Denmark). The results were analyzed on a PC using the software package Summit (version 4.0) provided by DAKO. The cells were sorted by gating the two peaks of the histogram representing vacuolar and cytoplasmic localization of Hst-5. Cellular localization of Hst-5 was confirmed with fluorescence microscopy. The sorted cells were then plated onto YPD plates and incubated overnight at 30°C (data as a mean±1SD of triplicate cultures)."}, "[9]": {"system": "C. albicans vps36 and snf7 mutant cells", "assay": "Hst-5 localization in vps36 and snf7 mutant cells by fluorescence microscopy", "assay_type": "cell-based, Candida albicans", "conditions": "10 µM FITC-Hst-5 and 10 µM FM4-64, 30 minutes, 30°C", "procedure": "as §1, §2"}, "C. albicans myo5 cells": {"system": "C. albicans myo5 cells", "assay": "FITC-Hst-5 localization in myo5 mutant cells by flow cytometry", "assay_type": "cell-based, Candida albicans", "conditions": "10 µM FITC-Hst-5 and 10 µM FM4-64, 10 minutes, 30°C", "procedure": "The intracellular localization of FITC-Hst-5 (5, 10, 20, and 50 µM) and FITC-m68 (5, 10, 20, 50, and 200 µM) was investigated either alone or in a double-labeling experiment using FM4-64 (Molecular Probes, Inc. Eugene, OR). […]\nas §3\n(§4) The distribution of FITC-labeled Hst-5 over the cell population was investigated by using a dual laser fluorescence-activated cell sorter (BD FACSCalibur System, Becton Dickinson, San Jose, CA). The results were analyzed with the software package CellQuest Pro (version 5.1.1) provided by Beckton Dickinson."}, "C. albicans cells [10]": {"system": "C. albicans cells", "assay": "Concentration-dependent localization of FITC-Hst-5 by flow cytometry (FACS analysis)", "assay_type": "cell-based, Candida albicans", "conditions": "30°C, ~10^6 cells/ml; for Percent of population: M2 (Hst-5 localized to the cytoplasm): high intensity peak; for Percent of population: M1 (Hst-5 localized to the vacuole): low intensity peak", "procedure": "as §1, §4"}, "[11]": {"conditions": "50 and 200 µM FITC-m68, 30°C, 30 minutes"}}, "data": [{"molecule": "DSHAKRHHGYKREFHEKHHSHGGY [FITC-m68, FITC-labeled Hst-5 m68]", "values": [{"measurement": "cytoplasmic localization", "setting": "C. albicans cells [1]; 5, 10 and 20 µM FITC-m68, 30°C, 30 minutes (data not shown)", "value": "not observed"}, {"measurement": "cellular localization", "setting": "C. albicans cells [1]; [11]", "value": "localized to the vacuole in the majority of cells"}, {"measurement": "cytoplasmic localization", "setting": "C. albicans cells [1]; [11]", "value": "only seen in a small portion of the cell population"}]}, {"molecule": "C[C@H](NC(=O)[C@H](Cc1cnc[nH]1)NC(=O)[C@H](CO)NC(=O)[C@@H](N)CC(=O)O)C(=O)N[C@@H](CCCCN)C(=O)N[C@@H](CCCNC(=N)N)C(=O)N[C@@H](Cc1cnc[nH]1)C(=O)N[C@@H](Cc1cnc[nH]1)C(=O)NCC(=O)N[C@@H](Cc1ccc(O)cc1)C(=O)N[C@@H](CCCCN)C(=O)N[C@@H](CCCNC(=N)N)C(=O)N[C@@H](CCCCN)C(=O)N[C@@H](Cc1ccccc1)C(=O)N[C@@H](Cc1cnc[nH]1)C(=O)N[C@@H](CCC(=O)O)C(=O)N[C@@H](CCCCN)C(=O)N[C@@H](Cc1cnc[nH]1)C(=O)N[C@@H](Cc1cnc[nH]1)C(=O)N[C@@H](CO)C(=O)N[C@@H](Cc1cnc[nH]1)C(=O)N[C@@H](CCCNC(=N)N)C(=O)NCC(=O)N[C@@H](Cc1ccc(O)cc1)C(=O)O", "note": "[Hst-5, histatin-5]", "values": [{"measurement": "cellular localization", "setting": "S. cerevisiae [2]", "value": "found bound to the cell surface"}, {"measurement": "resistance of the yeast to the peptide", "setting": "S. cerevisiae [3]", "value": "marked resistance"}, {"measurement": "killing of C. albicans in combination", "setting": "C. albicans; combined with amphotericin B", "value": "strong synergistic killing"}, {"measurement": "concentration that kills C. albicans in vitro (physiological concentrations)", "setting": "C. albicans; in vitro", "value": "15–30 µM"}, {"measurement": "lytic effect", "setting": "[4]", "value": "little lytic effect"}, {"measurement": "resistance of the yeast to the peptide", "setting": "C. glabrata [5]", "value": "marked resistance"}, {"measurement": "cellular localization", "setting": "[6]", "value": "observed in the cytoplasm in a majority of the cells"}, {"measurement": "cellular localization", "setting": "C. glabrata [7]", "value": "predominantly localized to the vacuole"}, {"measurement": "cellular localization", "setting": "C. albicans cells [1]; 5 µM FITC-Hst-5, 30 minutes, fluorescence microscopy", "value": "mostly vacuolar localization"}, {"measurement": "cellular localization", "setting": "C. albicans cells [1]; 20 µM FITC-Hst-5, pH 4.5, 30 minutes, 30°C", "value": "a preponderance of cells had Hst-5 localized within the cytoplasm"}, {"measurement": "cellular localization", "setting": "C. albicans cells [1]; 20 µM FITC-Hst-5, pH 9.0, 30 minutes, 30°C", "value": "no cytoplasmic localization was observed"}, {"measurement": "cellular localization", "setting": "C. albicans cells [1]; 50 µM FITC-Hst-5, 30 minutes, fluorescence microscopy", "value": "largely cytoplasmic localization with little vacuolar fluorescence"}, {"measurement": "colony formation of sorted cells with cytoplasmic Hst-5", "setting": "C. albicans cells [8]", "value": "none"}, {"measurement": "cellular localization", "setting": "[9]", "value": "excluded from the lumen of vacuole-like membrane structures"}]}, {"molecule": "DSHAKRHHGYKREFHEKHHSHGGY [m68, variant of Hst-5 reported by Tsai et al.: lysine-13 replaced with glutamic acid and arginine 22 with glycine, reference compound]", "values": [{"measurement": "killing ability relative to Hst-5", "setting": "C. albicans", "value": "significant reduction"}]}, {"molecule": "DSHAKRHHGYKRKFHEKHHSHRGY [FITC-Hst-5, FITC-labeled Hst-5]", "values": [{"measurement": "population with cytoplasmic localization", "setting": "C. albicans myo5 cells", "value": 19.01, "unit": "%"}, {"measurement": "population with plasma membrane localization", "setting": "C. albicans myo5 cells", "value": 80.99, "unit": "%"}, {"measurement": "Percent of population: M2 (Hst-5 localized to the cytoplasm)", "setting": "C. albicans cells [10]; 5 µM FITC-Hst-5, 30 minutes", "value": 1.94, "unit": "%"}, {"measurement": "Percent of population: M1 (Hst-5 localized to the vacuole)", "setting": "C. albicans cells [10]; 5 µM FITC-Hst-5, 30 minutes", "value": 96.02, "unit": "%"}, {"measurement": "Percent of population: M2 (Hst-5 localized to the cytoplasm)", "setting": "C. albicans cells [10]; 10 µM FITC-Hst-5, 30 minutes", "value": 34.63, "unit": "%"}, {"measurement": "Percent of population: M1 (Hst-5 localized to the vacuole)", "setting": "C. albicans cells [10]; 10 µM FITC-Hst-5, 30 minutes", "value": 64.02, "unit": "%"}, {"measurement": "Percent of population: M2 (Hst-5 localized to the cytoplasm)", "setting": "C. albicans cells [10]; 20 µM FITC-Hst-5, 30 minutes", "value": 70.43, "unit": "%"}, {"measurement": "Percent of population: M1 (Hst-5 localized to the vacuole)", "setting": "C. albicans cells [10]; 20 µM FITC-Hst-5, 30 minutes", "value": 29.69, "unit": "%"}, {"measurement": "Percent of population: M2 (Hst-5 localized to the cytoplasm)", "setting": "C. albicans cells [10]; 50 µM FITC-Hst-5, 30 minutes", "value": 93.44, "unit": "%"}, {"measurement": "Percent of population: M1 (Hst-5 localized to the vacuole)", "setting": "C. albicans cells [10]; 50 µM FITC-Hst-5, 30 minutes", "value": 6.50, "unit": "%"}]}]}
